Laboratory results: patent US20190388559A1, “ENCAPSULATION OF METAL OXIDE NANOMATERIALS FOR CONTROLLED RELEASE AND TARGETED DELIVERY” (Boise State University, priority 2018, published 2019)

Tested on: T47D breast cancer cells
Experiment: Alamar Blue viability of T47D cells with or without UV triggered release
Assay type: cell-based
Conditions: 48 hours, free nZnO 16.3 μg/mL, free PTX 40 nM
Procedure: Both cell lines were cultured in log phase using RPMI 1640 media supplemented with 10% fetal bovine serum (FBS), 1% penicillin/streptomycin, 2 mM L-glutamine, and for T47D cells, 0.2 Units/mL of bovine insulin per American Type Culture Collection (ATCC) recommendations.
For viability assessments, both Jurkat and T47D cells were cultured following ATCC recommendations noted above. For the Jurkat T cell line, the cells were first washed with PPH free RPMI 1640 and then seeded at a concentration of 2.5×10^5 cells/mL using the same media in a 96 well plate. For T47D cells, the cells were first seeded in the culture media at 1.0×10^5 cells/well in a 24 well plate the day prior to treatment to allow for cell attachment. The media was then gently aspirated and replaced with the PPH free RPMI 1640 media prior to NP treatment. […]
Once treated with NPs, the cells were then cultured for 48 hours at 37° C. and 5% CO2. […] After optimizing the UV irradiation protocol, required UV exposure was determined to be 3 minutes for Jurkat cells and 2 minutes for T47D cells to re-establish the toxicity of the nZnO while minimizing effects to the cellular viability. Cell viability was assessed using the Alamar Blue metabolic assay. […] The fluorescence intensity measurements were performed using a Biotek Synergy MX plate reader using an excitation/emission of 530/590 nm.

CC(=O)O[C@H]1C(=O)[C@@]2(C)[C@H]([C@H](OC(=O)c3ccccc3)[C@]3(O)C[C@H](OC(=O)[C@H](O)[C@@H](NC(=O)c4ccccc4)c4ccccc4)C(C)=C1C3(C)C)[C@]1(OC(C)=O)CO[C@@H]1C[C@@H]2O [PTX, Paclitaxel]
effect of free (non-encapsulated) controls on viability: somewhat similar effect as the non-triggered release Enc-nZnO/PTX group
